# Values quoted from earlier work as cited in patent US20100249179A1, “Farnesoid X Receptor Agonists” (SMITHKLINE BEECHAM CORPORATION, priority 2007, published 2010).
# Entries after “also recorded” stand apart in the source; their conditions may differ.
# Columns and labels:
# [1] = test system: C57BL mice on high-fat diet; details: cited from earlier work
# [2] = test system: male ob/ob mice; details: GW4064 30 mg/kg intraperitoneally; cited from earlier work
# [3] = test system: diabetic db/db mice; details: cited from earlier work
# [4] = test system: bile duct-ligated mouse; details: bile duct-ligated mouse model; cited from earlier work
# [5] = test system: mice on a lithogenic diet; details: cited from earlier work
# [6] = GW4064 100 mg/kg twice a day orally, high-fat diet mice, 100 mg/kg
# [7] = GW4064 100 mg/kg twice a day orally, high-fat diet mice
# [8] = oral GW4064 30 mg/kg bid, db/db mice
smiles,measurement,setting,value
CC(C)c1onc(-c2c(Cl)cccc2Cl)c1COc1ccc(/C=C/c2cccc(C(=O)O)c2)c(Cl)c1 [GW4064],glucose tolerance,"[1]; GW4064 100 mg/kg twice a day orally, high-fat diet mice, GTT, 100 mg/kg",corrected glucose intolerance; also recorded: improve
same,serum glucose,[1]; [6],decreased
same,serum insulin,[1]; [6],decreased
same,serum triglyceride,[1]; [6],decreased
same,high-fat diet induced body weight gain,[1]; [7],reduced
same,liver triglyceride content,[1]; [7],reduced
same,body fat mass,[1]; mice on high-fat diet,decrease
same,body weight,[1]; mice on high-fat diet,decrease
same,total cholesterol,[1]; mice on high-fat diet,decrease
same,body weight,[2],did not alter
same,fasting blood glucose,[2],no effect
same,food intake,[2],did not alter
same,glucose tolerance,[2],improved
same,insulin concentration,[2],decreased
same,insulin sensitivity,[2],enhanced
same,glycogen storage in the liver,[3]; db/db mice,enhanced
same,insulin signalling in the liver,[3]; db/db mice,enhanced
same,hyperglycemia,[3]; diabetic db/db mice,significantly improved
same,hyperlipidemia,[3]; diabetic db/db mice,significantly improved
same,NEFA,[3]; [8],decreased
same,blood glucose,[3]; [8],decreased
same,serum β-hydroxybutyrate,[3]; [8],decreased
same,total cholesterol,[3]; [8],decreased
same,triglyceride,[3]; [8],decreased
same,bacterial overgrowth,[4],decreased
same,mucosal barrier,[4],improved
same,translocation of bacteria to mesenteric lymph nodes,[4],decreased
same,formation of cholesterol crystals in the bile,[5],prevented
